Results: paper PMC8235719, “New RAD51 Inhibitors to Target Homologous Recombination in Human Cells” (Genes, 2021)

How the values were obtained:
[1] = tested on: HR in human U-2 OS IndDR-GFP cells; test: Inducible I-SceI DR-GFP assay (IndDR-GFP), inhibition of HR; assay type: cell-based
Description: Exponentially growing U-2 OS IndDR-GFP cells were seeded at a density of 2 × 10^5 cells/well into 6-well plates with DMEM media containing 80 µg/mL G418 and indicated concentrations of RAD51i(s). For I-SceI induced samples, the media were supplemented with 0.5 µM Shield1 (Clontech, Mountain View, CA, USA) with 100 nM triamcinolone acetonide (Sigma, St. Louis, MO, USA). After 24 h of incubation, the media were removed, cells were washed with the DMEM, and the incubation continued for 48 h in DMEM containing 100 units/mL penicillin, 100 µg/mL streptomycin, and 80 µg/mL G418. Then, cells were trypsinized, trypsin solution was neutralized with an equal volume of media, and 10% formaldehyde solution in PBS was added for fixation to reach a final concentration of formaldehyde of 3.3%. The yield of GFP-positive cells indicative of HR activity was measured by flow cytometry with the Guava easyCyte system, and the data were analyzed with the InCyte program (Millipore; Burlington, VT, USA).

[2] = tested on: γ-H2A.X foci in U-2 OS IndDR-GFP cells; test: γ-H2A.X foci formation (immunofluorescence); assay type: cell-based, human; conditions: indicated concentrations, cisplatin-treated cells
Description: (§1) U-2 OS IndDR-GFP cells were seeded into 8-well polystyrene vessel culture slides at 5 × 10^4 cells/well. The next day, cells were pretreated with B02-iso or 0.1% DMSO (for control cells) for 1 h, followed by the treatment with 5 µM cisplatin for 4 h or left untreated (for control cells). After 4 h of incubation, cells were placed on ice, washed with PBS buffer (twice, 5 min each), pretreated with 0.5% Triton X-100 for 5 min, washed with PBS (twice, 5 min each). Cells were removed from ice and fixed with 4% methanol-free formaldehyde (Pierce; Waltham, […], USA) in PBS for 10 min. Cells were washed with PBS (twice, 5 min each), placed on ice, and permeabilized with 1% Triton X-100 in PBS for 10 min. Cells were removed from ice, washed with PBS (once, 5 min), blocked with a blocking buffer (5% BSA (Bovine Serum Albumin) in PBS) for 30 min, and incubated with rabbit polyclonal RAD51 antibody (1:1000, GeneTex, GTX100469) and mouse monoclonal anti-phospho-histone H2A.X (Ser 139) antibody (1:20,000, clone JBW301, Millipore 05-636) in blocking buffer, containing 0.3% Triton X-100 overnight at 4 °C. […] For foci quantification, 50 cells were chosen for each treatment condition at random, and foci number was counted using ImageJ software. […]

[3] = tested on: RAD51 foci in U-2 OS IndDR-GFP cells; test: RAD51 foci formation (immunofluorescence); assay type: cell-based, human; conditions: 30 µM
Description: as §1

SMILES: O=c1nc(/C=C/c2cccnc2)n(Cc2ccccc2)c2ccccc12 [B02-iso]
- IC50 ([1]; Homo sapiens, U2OS, U-2 OS IndDR-GFP cells, 24 h with compound, ± SD, read-out: IC50, efficiency of HR inhibition in IndDR-GFP assay): 4.3 ± 0.75 µM
- Improvement of potency (HR inhibition) versus B02 ([1]; IndDR-GFP IC50 of B02-iso vs B02): approximately four-fold
- Level of γ-H2A.X foci [2]: did not reduce the level of γ-H2A.X foci
- RAD51 foci formation, compound alone ([3]; 1 h, no cisplatin): did not significantly affect RAD51 foci formation
- RAD51 foci formation induced by cisplatin ([3]; 1 h pretreatment, then 5 µM cisplatin 4 h): almost completely eliminated RAD51 foci formation
